In assay [1] the target is T1, human M4 receptor (Homo sapiens, UniProt P08173).
T1 construct: expressed in transfected cells
T1 sequence (P08173 1-479): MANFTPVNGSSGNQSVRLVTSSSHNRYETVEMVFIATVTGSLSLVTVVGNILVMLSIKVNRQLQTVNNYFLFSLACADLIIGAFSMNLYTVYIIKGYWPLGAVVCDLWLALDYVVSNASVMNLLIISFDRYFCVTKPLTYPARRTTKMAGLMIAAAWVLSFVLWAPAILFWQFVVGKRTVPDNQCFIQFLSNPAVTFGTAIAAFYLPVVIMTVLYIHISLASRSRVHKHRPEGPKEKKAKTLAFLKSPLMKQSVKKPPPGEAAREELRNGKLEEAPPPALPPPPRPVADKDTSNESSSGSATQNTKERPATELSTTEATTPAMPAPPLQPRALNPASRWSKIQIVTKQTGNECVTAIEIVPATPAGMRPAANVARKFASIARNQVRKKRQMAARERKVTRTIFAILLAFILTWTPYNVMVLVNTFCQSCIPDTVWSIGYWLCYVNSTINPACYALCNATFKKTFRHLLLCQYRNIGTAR
Kind of assay: M4 GTPγS PAM assay. The note with it: membranes of CHO-K1 cells stably expressing human M4; EC20 acetylcholine 40 nM; 35S-GTP. The format is biochemical. The method, boiled down:
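CHO-K1 membranes stably expressing human M4, preincubated with compound and 0.1 μM GDP (final) in 20 mM HEPES, 10 mM MgCl2, 100 mM NaCl, pH 7.4, then EC20 acetylcholine (40 nM final). 35S-GTPγS binding 1 h at room temperature, filtration and scintillation counting.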

Assay [2] addresses T2, hM4 receptors (Homo sapiens, UniProt P08173).
T2 construct: expressed in transfected cells; host or cells: CHO cells
T2 sequence (P08173 1-479): T1 sequence (P08173 1-479)
In words: Human M4 PAM pERK assay. The format is cell-based. As to conditions: CHO cells expressing hM4; EC20 of acetylcholine (10 nM final); TR-FRET. On the technique in general: In TR-FRET formats the signal depends on donor and acceptor labels being close together.

Assay [3] addresses T3, rM4 receptors (Rattus norvegicus, UniProt P08485).
T3 construct: expressed in transfected cells; host or cells: CHO cells
T3 sequence (P08485 1-478): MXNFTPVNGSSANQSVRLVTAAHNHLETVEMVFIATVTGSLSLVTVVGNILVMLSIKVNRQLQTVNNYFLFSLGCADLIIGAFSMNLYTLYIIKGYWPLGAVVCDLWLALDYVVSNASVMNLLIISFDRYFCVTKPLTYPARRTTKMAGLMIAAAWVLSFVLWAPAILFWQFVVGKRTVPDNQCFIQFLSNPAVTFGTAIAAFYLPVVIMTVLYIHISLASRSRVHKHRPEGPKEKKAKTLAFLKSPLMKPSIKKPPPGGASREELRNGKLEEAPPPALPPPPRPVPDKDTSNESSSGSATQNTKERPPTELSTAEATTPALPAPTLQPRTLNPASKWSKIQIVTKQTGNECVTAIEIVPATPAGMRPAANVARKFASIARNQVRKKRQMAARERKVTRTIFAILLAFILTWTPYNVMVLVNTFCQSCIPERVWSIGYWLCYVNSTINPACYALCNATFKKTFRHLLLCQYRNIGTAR
Kind of assay: Rat M4 PAM pERK assay. The format is cell-based. As to conditions: CHO cells expressing rM4; EC20 of acetylcholine (10 nM final); TR-FRET.

In the case of `Cc1nc2c(c(OCC3CC3)n1)CN(C(=O)CC1CN(c3ccnc(C(F)(F)F)c3)C1)C2` [Compound I-50, 1-(4-(Cyclopropylmethoxy)-2-methyl-5,7-dihydro-6H-pyrrolo[3,4-d]pyrimidin-6-yl)-2-(1-(2-(trifluoromethyl)pyridin-4-yl)azetidin-3-yl)ethan-1-one], the EC50 in assay [1], in assay [2] and in assay [3] was ≥ 2 µM in each case.
For `COc1nc2c(c(OC)n1)CN(C(=O)CC1CN(c3ccnc(C(F)(F)F)c3)C1)C2` [Compound I-64, 1-(2,4-Dimethoxy-5,7-dihydro-6H-pyrrolo[3,4-d]pyrimidin-6-yl)-2-(1-(2-(trifluoromethyl)pyridin-4-yl)azetidin-3-yl)ethan-1-one], the EC50 in assay [1] was 0.5 to 2 µM; in assay [2] it was 0.1 to 0.5 µM; in assay [3] it was ≥ 2 µM.
Take `COc1nc2c(c(C3CCC3)n1)CN(C(=O)CC1CN(c3ccnc(C(F)(F)F)c3)C1)C2` [Compound I-74, 1-(4-Cyclobutyl-2-methoxy-5,7-dihydro-6H-pyrrolo[3,4-d]pyrimidin-6-yl)-2-(1-(2-(trifluoromethyl)pyridin-4-yl)azetidin-3-yl)ethan-1-one]: the EC50 in assay [1], in assay [2] and in assay [3] was ≥ 2 µM each time.
With `COc1nc(C)c2c(n1)CN(C(=O)CC1CN(c3ccnc(C(F)(F)F)c3)C1)C2` [Compound I-75, 1-(2-Methoxy-4-methyl-5,7-dihydro-6H-pyrrolo[3,4-d]pyrimidin-6-yl)-2-(1-(2-(trifluoromethyl)pyridin-4-yl)azetidin-3-yl)ethan-1-one], the EC50 in assay [1] was 0.1 to 0.5 µM; in assay [2] it was 0.1 to 0.5 µM; in assay [3] it was ≥ 2 µM.
As to `COc1nc2c(c(OC(F)F)n1)CN(C(=O)CC1CN(c3cccnc3)C1)C2` [Compound I-76, 1-(4-(Difluoromethoxy)-2-methoxy-5,7-dihydro-6H-pyrrolo[3,4-d]pyrimidin-6-yl)-2-(1-(pyridin-3-yl)azetidin-3-yl)ethan-1-one], the EC50 in assay [1], in assay [2] and in assay [3] was ≥ 2 µM each time.
`COc1nc(C2CC2)nc2c1CN(C(=O)CC1CN(c3ccnc(C(F)(F)F)c3)C1)C2` [Compound I-79, 1-(2-Cyclopropyl-4-methoxy-5,7-dihydro-6H-pyrrolo[3,4-d]pyrimidin-6-yl)-2-(1-(2-(trifluoromethyl)pyridin-4-yl)azetidin-3-yl)ethan-1-one]: the figures for the EC50 in assay [1], in assay [2] and in assay [3] were 0.1 to 0.5 µM, 0.5 to 2 µM and 0.5 to 2 µM, respectively.

Usually EC50 stands for the concentration that produces a half-maximal response.
